Test results as given in ChEMBL document CHEMBL3885881, “DrugMatrix”.

Species: Rattus norvegicus
Experiment: DrugMatrix - Regimen: Daily Repeat
Type: toxicity, organism-based, Sprague-Dawley
Parameters: regimen Daily Repeat, gender Male, age 6-8 weeks
Details: in vivo, po, route oral GAVAGE, […]; for ABSOLUTE BASOPHIL / ABSOLUTE EOSINOPHIL / ABSOLUTE LYMPHOCYTE / ABSOLUTE MONOCYTE / ABSOLUTE SEGMENTED NEUTROPHIL / BASOPHIL / EOSINOPHIL / ERYTHROCYTE COUNT / HEMATOCRIT / HEMOGLOBIN / LEUKOCYTE COUNT / LYMPHOCYTE / MEAN CORPUSCULAR HEMOGLOBIN / MEAN CORPUSCULAR HEMOGLOBIN CONCENTRATION / MEAN CORPUSCULAR VOLUME / MONOCYTE / NEUTROPHIL / NUCLEATED RED BLOOD CELLS / PLATELET COUNT: tissue Blood; for ALANINE AMINOTRANSFERASE / ALBUMIN / ALKALINE PHOSPHATASE / ASPARTATE AMINOTRANSFERASE / BLOOD UREA NITROGEN / CARBON DIOXIDE / CHLORIDE / CHOLESTEROL / CREATINE PHOSPHOKINASE / CREATININE / GLUCOSE / LACTATE DEHYDROGENASE / LIPASE / PHOSPHORUS / POTASSIUM / SODIUM / TOTAL BILIRUBIN / TOTAL PROTEIN / URIC ACID: tissue Plasma
[1] = 100 mg/kg, 120 h, dose level M1, time 5 day
[2] = 610 mg/kg, 72 h, dose level High, time 3 day
[3] = 610 mg/kg, 120 h, dose level High, time 5 day

## CC(C)(c1ccc(O)cc1)c1ccc(O)cc1 [BISPHENOL A]
[1]
  ABSOLUTE BASOPHIL: 0 CELLS/uL
  ABSOLUTE EOSINOPHIL: 0 CELLS/uL
  ABSOLUTE LYMPHOCYTE: 6683.33 CELLS/uL
  ABSOLUTE MONOCYTE: 63.33 CELLS/uL
  ABSOLUTE SEGMENTED NEUTROPHIL: 353.33 CELLS/uL
  BASOPHIL: 0%
  EOSINOPHIL: 0%
  ERYTHROCYTE COUNT: 5.4 x10E6/uL
  HEMATOCRIT: 32.4%
  HEMOGLOBIN: 12.83 G/DL
  LEUKOCYTE COUNT: 7.1 x10E3/uL
  LYMPHOCYTE: 94%
  MEAN CORPUSCULAR HEMOGLOBIN: 23.8 pg
  MEAN CORPUSCULAR HEMOGLOBIN CONCENTRATION: 39.63 G/DL
  MEAN CORPUSCULAR VOLUME: 59.87 fL
  MONOCYTE: 1%
  NEUTROPHIL: 5%
  NUCLEATED RED BLOOD CELLS: 0 /100WBC
  PLATELET COUNT: 1281.67 x10E3/uL
  ALANINE AMINOTRANSFERASE: 80.33 u/L
  ALBUMIN: 4.13 G/DL
  ALKALINE PHOSPHATASE: 398.67 u/L
  ASPARTATE AMINOTRANSFERASE: 90.33 u/L
  BLOOD UREA NITROGEN: 13.33 mg/dL
  CARBON DIOXIDE: 29.33 mmol/L
  CHLORIDE: 100.33 MEQ/L
  CHOLESTEROL: 54.67 mg/dL
  CREATINE PHOSPHOKINASE: 295 u/L
  CREATININE: 0.26 mg/dL
  GLUCOSE: 161 mg/dL
  LACTATE DEHYDROGENASE: 102.33 u/L
  LIPASE: 13.33 u/L
  PHOSPHORUS: 9.57 mg/dL
  POTASSIUM: 5.37 MEQ/L
  SODIUM: 144.17 MEQ/L
  TOTAL BILIRUBIN: 0.17 mg/dL
  TOTAL PROTEIN: 5.77 G/DL
  URIC ACID: 0.83 mg/dL
[2]
  ABSOLUTE BASOPHIL: 0 CELLS/uL
  ABSOLUTE EOSINOPHIL: 22.33 CELLS/uL
  ABSOLUTE LYMPHOCYTE: 6406 CELLS/uL
  ABSOLUTE MONOCYTE: 44.67 CELLS/uL
  ABSOLUTE SEGMENTED NEUTROPHIL: 760.33 CELLS/uL
  BASOPHIL: 0%
  EOSINOPHIL: 0.33%
  ERYTHROCYTE COUNT: 5.65 x10E6/uL
  HEMATOCRIT: 34.33%
  HEMOGLOBIN: 13.43 G/DL
  LEUKOCYTE COUNT: 7.23 x10E3/uL
  LYMPHOCYTE: 88.33%
  MEAN CORPUSCULAR HEMOGLOBIN: 23.77 pg
  MEAN CORPUSCULAR HEMOGLOBIN CONCENTRATION: 39.1 G/DL
  MEAN CORPUSCULAR VOLUME: 60.8 fL
  MONOCYTE: 0.67%
  NEUTROPHIL: 10.67%
  NUCLEATED RED BLOOD CELLS: 0.33 /100WBC
  PLATELET COUNT: 1156 x10E3/uL
  ALANINE AMINOTRANSFERASE: 84.33 u/L
  ALBUMIN: 3.93 G/DL
  ALKALINE PHOSPHATASE: 316.33 u/L
  ASPARTATE AMINOTRANSFERASE: 77.67 u/L
  BLOOD UREA NITROGEN: 15.67 mg/dL
  CARBON DIOXIDE: 31.33 mmol/L
  CHLORIDE: 100 MEQ/L
  CHOLESTEROL: 64.33 mg/dL
  CREATINE PHOSPHOKINASE: 263.67 u/L
  CREATININE: 0.18 mg/dL
  GLUCOSE: 157.33 mg/dL
  LACTATE DEHYDROGENASE: 115.67 u/L
  LIPASE: 10 u/L
  PHOSPHORUS: 10.37 mg/dL
  POTASSIUM: 5.53 MEQ/L
  SODIUM: 143.73 MEQ/L
  TOTAL BILIRUBIN: 0.27 mg/dL
  TOTAL PROTEIN: 5.73 G/DL
  URIC ACID: 0.7 mg/dL
[3]
  ABSOLUTE BASOPHIL: 0 CELLS/uL
  ABSOLUTE EOSINOPHIL: 0 CELLS/uL
  ABSOLUTE LYMPHOCYTE: 8347 CELLS/uL
  ABSOLUTE MONOCYTE: 82 CELLS/uL
  ABSOLUTE SEGMENTED NEUTROPHIL: 671 CELLS/uL
  BASOPHIL: 0%
  EOSINOPHIL: 0%
  ERYTHROCYTE COUNT: 5.73 x10E6/uL
  HEMATOCRIT: 35.8%
  HEMOGLOBIN: 14.07 G/DL
  LEUKOCYTE COUNT: 9.1 x10E3/uL
  LYMPHOCYTE: 91.67%
  MEAN CORPUSCULAR HEMOGLOBIN: 24.6 pg
  MEAN CORPUSCULAR HEMOGLOBIN CONCENTRATION: 39.3 G/DL
  MEAN CORPUSCULAR VOLUME: 62.63 fL
  MONOCYTE: 0.67%
  NEUTROPHIL: 7.67%
  NUCLEATED RED BLOOD CELLS: 0.33 /100WBC
  PLATELET COUNT: 1180 x10E3/uL
  ALANINE AMINOTRANSFERASE: 106.33 u/L
  ALBUMIN: 4.3 G/DL
  ALKALINE PHOSPHATASE: 452.33 u/L
  ASPARTATE AMINOTRANSFERASE: 135.67 u/L
  BLOOD UREA NITROGEN: 12 mg/dL
  CARBON DIOXIDE: 29 mmol/L
  CHLORIDE: 100.5 MEQ/L
  CHOLESTEROL: 60.33 mg/dL
  CREATINE PHOSPHOKINASE: 592 u/L
  CREATININE: 0.11 mg/dL
  GLUCOSE: 154 mg/dL
  LACTATE DEHYDROGENASE: 112 u/L
  LIPASE: 48.33 u/L
  PHOSPHORUS: 8.77 mg/dL
  POTASSIUM: 5.17 MEQ/L
  SODIUM: 144.95 MEQ/L
  TOTAL BILIRUBIN: 0.27 mg/dL
  TOTAL PROTEIN: 5.53 G/DL
  URIC ACID: 0.6 mg/dL
